According to PubChem BioAssay AID2060611 (Molecular Pharmacology Branch, DTP, NCI, 2025):
Values joined by “and” are separate entries in the source; they are usually repeats but may differ in a detail not shown here. Identical values can stand only once.

Tested on: 628569-122-R-J1-PDC complex spheroid viability
Assay: Anticancer human tumor 628569-122-R-J1-PDC patient-derived head and neck squamous carcinoma cell line growth inhibition [CLK]
Conditions: for viability, T/C: stronger effect = lower value; active = viability on the fitted dose curve at most 10% of control; inactive = the rest
Procedure, shortened: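 Patient-derived tumor cells grown as complex spheroids with HUVEC endothelial cells and mesenchymal stem cells, treated with drug combinations. Concentrations descend in half-log steps from near clinical Cmax, or from 10 microM if Cmax unknown.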

[1] = curve of first compound, second compound 0.0316 µM
[2] = curve of first compound, second compound 0.1 µM
[3] = curve of first compound, second compound 0.316 µM
[4] = curve of first compound, second compound 1 µM
[5] = curve of first compound, second compound 3.16 µM
[6] = curve of first compound, second compound 10 µM
[7] = second compound 0.0316 µM, first compound 0.0316 µM
[8] = second compound 0.0316 µM, first compound 0.1 µM
[9] = second compound 0.0316 µM, first compound 0.316 µM
[10] = second compound 0.0316 µM, first compound 1 µM
[11] = second compound 0.0316 µM, first compound 3.16 µM
[12] = second compound 0.0316 µM, first compound 10 µM
[13] = second compound 0.1 µM, first compound 0.0316 µM
[14] = second compound 0.1 µM, first compound 0.1 µM
[15] = second compound 0.1 µM, first compound 0.316 µM
[16] = second compound 0.1 µM, first compound 1 µM
[17] = second compound 0.1 µM, first compound 3.16 µM
[18] = second compound 0.1 µM, first compound 10 µM
[19] = second compound 0.316 µM, first compound 0.0316 µM
[20] = second compound 0.316 µM, first compound 0.1 µM
[21] = second compound 0.316 µM, first compound 0.316 µM
[22] = second compound 0.316 µM, first compound 1 µM
[23] = second compound 0.316 µM, first compound 3.16 µM
[24] = second compound 0.316 µM, first compound 10 µM
[25] = second compound 1 µM, first compound 0.0316 µM
[26] = second compound 1 µM, first compound 0.1 µM
[27] = second compound 1 µM, first compound 0.316 µM
[28] = second compound 1 µM, first compound 1 µM
[29] = second compound 1 µM, first compound 3.16 µM
[30] = second compound 1 µM, first compound 10 µM
[31] = second compound 3.16 µM, first compound 0.0316 µM
[32] = second compound 3.16 µM, first compound 0.1 µM
[33] = second compound 3.16 µM, first compound 0.316 µM
[34] = second compound 3.16 µM, first compound 1 µM
[35] = second compound 3.16 µM, first compound 3.16 µM
[36] = second compound 3.16 µM, first compound 10 µM
[37] = second compound 10 µM, first compound 0.0316 µM
[38] = second compound 10 µM, first compound 0.1 µM
[39] = second compound 10 µM, first compound 0.316 µM
[40] = second compound 10 µM, first compound 1 µM
[41] = second compound 10 µM, first compound 3.16 µM
[42] = second compound 10 µM, first compound 10 µM
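Also: spheroids exposed to agents for seven days before readout.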
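For viability, T/C in this document: 100% = DMSO vehicle control viability.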

Nc1ccn(C2OC(CO)C(O)C2(F)F)c(=O)n1 (stereo not drawn) + CN1CCN(c2cc(C(=O)Nc3cc4cc(-c5cnn(C)c5)ccc4cn3)ccn2)CC1
active: viability, T/C [25] 5.39% | viability, T/C [26] 3.49% | viability, T/C [27] 4.39% | viability, T/C [28] 4.7% | viability, T/C [29] 3.75% | viability, T/C [30] 3.77% | viability, T/C [31] 8.67% | viability, T/C [32] 5.79% | viability, T/C [33] 7.19% | viability, T/C [34] 5% | viability, T/C [35] 7.97% | viability, T/C [36] 3.35% | viability, T/C [37] 4.52% | viability, T/C [38] 4.25% | viability, T/C [39] 3.92% | viability, T/C [40] 6.65% | viability, T/C [41] 2.05% | viability, T/C [42] 1.36%
< 31.6 nM: IC50 [3] | IC50 [4] | IC50 [5] | IC50 [6]
inactive: viability, T/C [7] 71.5% | viability, T/C [8] 57.1% | viability, T/C [9] 55.4% | viability, T/C [10] 58.4% | viability, T/C [11] 59% | viability, T/C [12] 62.9% | viability, T/C [13] 58.3% | viability, T/C [14] 48.6% | viability, T/C [15] 52.9% | viability, T/C [16] 56.8% | viability, T/C [17] 51.9% | viability, T/C [18] 65.2% | viability, T/C [19] 28.5% | viability, T/C [20] 31.5% | viability, T/C [21] 23.9% | viability, T/C [22] 35.1% | viability, T/C [23] 36.1% | viability, T/C [24] 29.3%
> 10000 nM: IC50 [1] | IC50 [2]

C#Cc1c(F)ccc2cc(O)cc(-c3ncc4c(N5CC6CCC(C5)N6)nc(OCC56CCCN5CC(F)C6)nc4c3F)c12 (stereo not drawn)
> 10000 nM: IC50 (curve of compound)
inactive: viability, T/C (compound 0.0316 µM) 88.1% and 89.3% | viability, T/C (compound 0.1 µM) 88.5% and 80.7% | viability, T/C (compound 0.316 µM) 73.6% and 65.8% | viability, T/C (compound 1 µM) 68.5% and 81% | viability, T/C (compound 3.16 µM) 92% and 112% | viability, T/C (compound 10 µM) 120% and 91.5%

Nc1ccccc1NC(=O)c1ccc(CNC(=O)OCc2cccnc2)cc1 + CNC(=O)c1ccc(Nc2nc(OC3CCCC3)c3c(-c4ccc5nc(C)oc5c4)c[nH]c3n2)c(OC)c1
3310 nM: IC50 [5]
184 nM: IC50 [4]
inactive: viability, T/C [7] 97.7% | viability, T/C [8] 114% | viability, T/C [9] 125% | viability, T/C [10] 138% | viability, T/C [11] 101% | viability, T/C [12] 45.6% | viability, T/C [13] 59.1% | viability, T/C [14] 55% | viability, T/C [15] 61.9% | viability, T/C [16] 83.7% | viability, T/C [17] 102% | viability, T/C [18] 32.3% | viability, T/C [19] 50.8% | viability, T/C [20] 51% | viability, T/C [21] 49% | viability, T/C [22] 73.3% | viability, T/C [23] 94.1% | viability, T/C [24] 22.5% | viability, T/C [25] 42.9% | viability, T/C [26] 48.7% | viability, T/C [27] 47.4% | viability, T/C [28] 60.4% | viability, T/C [29] 81.8% | viability, T/C [30] 12.5% | viability, T/C [31] 44.6% | viability, T/C [32] 45.5% | viability, T/C [33] 45.8% | viability, T/C [34] 56.5% | viability, T/C [35] 67.3% | viability, T/C [37] 48.6% | viability, T/C [38] 41.5% | viability, T/C [39] 44.2% | viability, T/C [40] 54.3% | viability, T/C [41] 57.6%
9140 nM: IC50 [1]
active: viability, T/C [36] 7.27% | viability, T/C [42] 4.45%
> 10000 nM: IC50 [2] | IC50 [3]
31.6 nM: IC50 [6]

CC1COCCN1c1cc(C2(S(C)(=N)=O)CC2)nc(-c2ccnc3[nH]ccc23)n1 (stereo not drawn) + CNC(=O)c1ccc(Nc2nc(OC3CCCC3)c3c(-c4ccc5nc(C)oc5c4)c[nH]c3n2)c(OC)c1
930 nM: IC50 [1]
inactive: viability, T/C [7] 103% | viability, T/C [8] 100% | viability, T/C [9] 67.5% | viability, T/C [10] 51.4% | viability, T/C [11] 45% | viability, T/C [12] 35.3% | viability, T/C [13] 66.2% | viability, T/C [14] 58.3% | viability, T/C [15] 56.1% | viability, T/C [16] 54.5% | viability, T/C [17] 54% | viability, T/C [18] 40% | viability, T/C [19] 45% | viability, T/C [20] 64.8% | viability, T/C [21] 50.9% | viability, T/C [22] 52.3% | viability, T/C [23] 44.7% | viability, T/C [24] 35.6% | viability, T/C [25] 45.1% | viability, T/C [26] 46.2% | viability, T/C [27] 40.4% | viability, T/C [28] 38.3% | viability, T/C [29] 41.8% | viability, T/C [30] 33.8% | viability, T/C [31] 44.1% | viability, T/C [32] 55.3% | viability, T/C [33] 47.2% | viability, T/C [34] 37.7% | viability, T/C [35] 36.7% | viability, T/C [36] 32% | viability, T/C [37] 44.2% | viability, T/C [38] 43.7% | viability, T/C [39] 39.7% | viability, T/C [40] 40.4% | viability, T/C [41] 39% | viability, T/C [42] 29.4%
1380 nM: IC50 [3]
< 31.6 nM: IC50 [4] | IC50 [5] | IC50 [6]
2970 nM: IC50 [2]
